According to PubChem BioAssay (NCI):
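Compound exposure: 48 hours, 5 concentrations, 96-well plates. TGI: total growth inhibition.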

Key:
Experiment in all cases: NCI tumour cell line growth inhibition, 48 h
[1] = tested on: DMS 114 small cell lung
[2] = tested on: DLD-1 colon
[3] = tested on: HOP-18 NSCLC
[4] = tested on: DMS 273 small cell lung
[5] = tested on: RXF-631 renal
[6] = tested on: SNB-78 CNS
[7] = tested on: SN12K1 renal
[8] = tested on: P388 leukemia
[9] = tested on: P388/ADR leukemia

O=C(Nc1c(C(=O)NC2CCCCC2)[nH]c(=O)[nH]c1=O)c1ccc(Cl)cc1 was tested, and the TGI [1] was > 100 µM, the TGI [2] was > 100 µM and the TGI [3] was > 100 µM.

C=C1C(=O)O[C@@H]2[C@H]1CCC(C)=C1C=CC(=O)[C@]12C was tested, and the TGI [4] was 41.1 µM, the TGI [5] was 23.6 µM and the TGI [1] was 29.8 µM. For the same compound, the TGI [2] was 32.8 µM, the TGI [6] was 18.9 µM and the TGI [3] was 29.7 µM.

In the case of O=C(O)C1CCC(=O)N1S(=O)(=O)c1ccccc1 (configuration not stated), the TGI [4] is reported as > 100 µM, the TGI [7] is reported as > 100 µM and the TGI [1] is reported as > 100 µM. For the same compound, the TGI [2] was > 100 µM, the TGI [6] was > 100 µM and the TGI [8] was > 100 µM. For the same compound, the TGI [9] was > 100 µM and the TGI [3] was > 100 µM.

With CCOc1ccc(/C(C=O)=C(\Cl)c2ccc(OC)c(OC)c2)cc1 the TGI [4] was > 100 µM, the TGI [5] was > 100 µM and the TGI [1] was > 100 µM. For the same compound, the TGI [2] was > 100 µM, the TGI [6] was > 100 µM and the TGI [3] was > 100 µM.

Cc1cc2c(C(C)C)c(O)c(O)c(C=NCCO)c2c(O)c1-c1c(C)cc2c(C(C)C)c(O)c(O)c(C=NCCO)c2c1O gave a TGI [4] of 3.16 µM, a TGI [5] of 5.35 µM and a TGI [1] of 2.7 µM. It also gave a TGI [2] of 11.7 µM, a TGI [6] of 34.1 µM and a TGI [3] of 5.37 µM.

For CC(=O)OCC1=C(C(=O)O)C(c2ccc3c(c2)OCO3)c2cc3c(cc2O1)OCO3 (configuration not stated), the TGI [4] was > 100 µM, the TGI [5] was > 100 µM and the TGI [1] was > 100 µM. The TGI [2] was > 100 µM, the TGI [6] was > 100 µM and the TGI [3] was > 100 µM.

In the case of NC1(C(=O)O)CCc2ccc(N(CCCl)CCCl)cc2C1 (configuration not stated), the TGI [4] is reported as > 100 µM, the TGI [7] is reported as > 100 µM and the TGI [1] is reported as > 100 µM. For the same compound, the TGI [2] was > 100 µM, the TGI [8] was 7.27 µM and the TGI [9] was 35.1 µM. For the same compound, the TGI [3] was > 100 µM.

For CCCC(N)C(=O)c1ccccc1 (configuration not stated), the TGI [4] was > 100 µM, the TGI [1] was > 100 µM and the TGI [2] was > 100 µM. For the same compound, the TGI [6] was > 100 µM and the TGI [3] was > 100 µM.

In the case of O=C(Nc1ccc(Sc2ccc(N=Nc3c(O)c(S(=O)(=O)O)cc4cc(S(=O)(=O)O)ccc34)cc2)cc1)c1ccc(N=Nc2c(O)ccc3c(S(=O)(=O)O)cc(S(=O)(=O)O)cc23)cc1, the TGI [4] is reported as > 100 µM, the TGI [5] is reported as > 100 µM and the TGI [2] is reported as > 100 µM. The TGI [6] was > 100 µM and the TGI [3] was > 100 µM.

N#CC(Nc1cccc(C(F)(F)F)c1)c1ccccc1C(F)(F)F (configuration not stated) was tested, and the TGI [4] was 21.1 µM, the TGI [1] was 23.8 µM and the TGI [2] was 29.5 µM. It also gave a TGI [6] of 43 µM and a TGI [3] of 26.4 µM.
